Test results: ChEMBL document CHEMBL1275471, “ISEcp1-mediated transposition of qnrB-like gene in Escherichia coli” (2008)
Converted amounts (≈) assume the structure as drawn.

How the values were obtained:
Format in all cases: functional
[1] = system: Escherichia coli; test: Antimicrobial activity against azide-resistant Escherichia coli J53 by CLSI method
[2] = system: Escherichia coli; test: Antimicrobial activity against Escherichia coli R4525 expressing gyrA S83L and D87Y and parC S80I and E84G mutant gene by CLSI method
[3] = system: Escherichia coli; test: Antimicrobial activity against Escherichia coli J53 transconjugate by CLSI method

Structure (SMILES)	MIC [1]	MIC [2]	MIC [3]
CCN1CCN(c2cc3c(cc2F)c(=O)c(C(=O)O)cn3C2CC2)CC1 [ENROFLOXACIN]	0.01 µg/mL (≈ 0.0278 µM)	> 32 µg/mL	0.5 µg/mL (≈ 1.39 µM)
CCn1cc(C(=O)O)c(=O)c2ccc(C)nc21 [NALIDIXIC ACID]	4 µg/mL (≈ 17.2 µM)	> 256 µg/mL	32 µg/mL (≈ 138 µM)
CCn1cc(C(=O)O)c(=O)c2cc(F)c(N3CCNCC3)cc21 [NORFLOXACIN]	0.12 µg/mL (≈ 0.376 µM)	> 256 µg/mL	1 µg/mL (≈ 3.13 µM)
CC1COc2c(N3CCN(C)CC3)c(F)cc3c(=O)c(C(=O)O)cn1c23 (stereo not drawn) [OFLOXACIN]	–	> 32 µg/mL	–
C[C@@H]1CN(c2c(F)c(N)c3c(=O)c(C(=O)O)cn(C4CC4)c3c2F)C[C@H](C)N1 [SPARFLOXACIN]	0.01 µg/mL (≈ 0.0255 µM)	> 32 µg/mL	1 µg/mL (≈ 2.55 µM)
